Experimental data published in publication PMC3871618 (PLoS ONE, 2013).
pIC50: −log10 of the molar value. Like-named read-outs stand apart in the source and are kept apart here.

Columns and labels:
MDCKII-ABCB1 cells = experiment: XTT cytotoxicity, CDKi + DNR combination (Chou-Talalay); assay type: cell-based; settings: for Combination index (CI) category, combination with DNR: constant ratio
Protocol: (§1) 1×10^4 MDCKII-ABCB1, 1×10^4 MDCKII parent, 2×10^4 HCT-8, or 2×10^4 HepG2 cells were grown in 96-well culture plates and incubated for 24 h. Individual CDKi diluted with growth medium were added to the exponentially growing cells and the resulting mixtures were incubated for 72 h at 37°C, 5% CO2. Cytotoxicity was then assessed using the XTT assay as follows: cells were incubated with 0.167 mg/mL XTT and 4 µM PMS in Opti-MEM for 2 h. The absorbance of the soluble formazan released was measured at 470 nm on a microplate reader (Tecan, Männedorf, Switzerland).
(§2) The combination index (CI) method of Chou-Talalay, based on the median-effect equation, was used to calculate combined drug effects. This approach offers quantitative definitions for additive, synergistic and antagonistic effects (CI values of 0.9–1.1, <0.9, and >1.1, respectively). Combination experiments were performed in a constant-ratio experimental design as recommended for the most efficient data analysis, and the generated data were used to quantify dose-reduction indices (DRI) for pairs of the tested drugs. DRI represents the fold-change of a focal effect when individual agents are used simultaneously relative to their separate effects, and their activity is synergistic if DRI > 1. […] The data acquired from these drug combination experiments were analyzed using CompuSyn ver. 3.0.1 software (ComboSyn Inc., Paramus, NJ, USA).

MDCKII parent cells = experiment: as above; assay type: cell-based; settings: 72 h; for DRI at Fa 0.5, drug II (CDKi) / DRI at Fa 0.75, drug II (CDKi) / DRI at Fa 0.9, drug II (CDKi): CDKi combined with DNR at constant ratio; for Fa above which combination with DNR is synergistic: constant ratio
Protocol: as §1, §2

ABCB1 [1] = target: T1, ABCB1 (Homo sapiens, UniProt P08183); experiment: ABCB1-ATPase inhibition assay (verapamil-stimulated), Sf9 membranes; assay type: biochemical; set-up: purchased Solvo Biotechnology (Szeged, Hungary); host or cells: Sf9 insect cell membranes; settings: 140 nM to 300 µM
T1 sequence (P08183 whole entry): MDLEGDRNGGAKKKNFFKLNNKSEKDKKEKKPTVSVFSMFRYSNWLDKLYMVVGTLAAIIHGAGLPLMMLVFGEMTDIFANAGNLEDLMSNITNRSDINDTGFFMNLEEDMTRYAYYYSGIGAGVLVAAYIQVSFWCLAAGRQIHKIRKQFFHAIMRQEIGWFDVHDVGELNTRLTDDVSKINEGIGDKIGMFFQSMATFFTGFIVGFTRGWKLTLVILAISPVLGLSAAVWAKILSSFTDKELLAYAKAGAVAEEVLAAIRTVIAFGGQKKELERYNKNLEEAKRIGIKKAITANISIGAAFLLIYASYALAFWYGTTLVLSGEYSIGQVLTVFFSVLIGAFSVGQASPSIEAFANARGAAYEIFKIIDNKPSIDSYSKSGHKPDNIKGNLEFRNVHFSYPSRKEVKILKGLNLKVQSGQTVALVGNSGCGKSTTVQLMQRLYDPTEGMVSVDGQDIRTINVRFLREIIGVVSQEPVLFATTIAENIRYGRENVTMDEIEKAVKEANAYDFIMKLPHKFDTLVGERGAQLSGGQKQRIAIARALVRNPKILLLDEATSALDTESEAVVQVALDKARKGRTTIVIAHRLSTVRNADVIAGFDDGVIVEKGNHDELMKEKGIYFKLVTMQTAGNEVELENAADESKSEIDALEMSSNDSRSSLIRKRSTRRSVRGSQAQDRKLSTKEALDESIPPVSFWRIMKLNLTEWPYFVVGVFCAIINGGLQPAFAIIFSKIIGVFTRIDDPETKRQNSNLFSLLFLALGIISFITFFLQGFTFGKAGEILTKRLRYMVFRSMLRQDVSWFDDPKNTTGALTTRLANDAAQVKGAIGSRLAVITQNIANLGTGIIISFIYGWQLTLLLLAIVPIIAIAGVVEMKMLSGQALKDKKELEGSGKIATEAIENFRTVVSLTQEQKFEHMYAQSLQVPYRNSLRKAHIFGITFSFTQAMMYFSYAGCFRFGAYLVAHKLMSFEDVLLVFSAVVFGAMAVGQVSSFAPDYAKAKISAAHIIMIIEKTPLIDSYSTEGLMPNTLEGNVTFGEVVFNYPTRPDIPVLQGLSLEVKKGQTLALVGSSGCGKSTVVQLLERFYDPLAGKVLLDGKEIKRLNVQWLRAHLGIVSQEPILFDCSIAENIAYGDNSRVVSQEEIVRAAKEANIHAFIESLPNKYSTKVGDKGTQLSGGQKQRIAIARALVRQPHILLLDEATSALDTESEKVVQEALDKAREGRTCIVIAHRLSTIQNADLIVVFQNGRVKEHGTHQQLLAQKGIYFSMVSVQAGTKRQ
Protocol: (§3) The drug efflux function of ABCB1 is linked to hydrolysis of ATP by ATPase, which is stimulated in the presence of ABCB1 substrates. In the activation assay, transported substrates can stimulate baseline vanadate-sensitive ATPase activity, whereas in the inhibition assay, which is carried out in the presence of a known activator of the transporter, inhibitors may reduce the maximal vanadate-sensitive ATPase activity. ATPase activity was measured by assessing the amount of phosphate liberated from ATP by the ABCB1 transporter using the […] ATPase kit for ABCB1 according to the manufacturer’s instructions. For this purpose, Sf9 cell membranes (4 µg protein per well) were mixed with each of the test compounds (singly) in solutions with concentrations ranging from 140 nM to 300 µM, then incubated at 37°C for 10 min in the presence or absence of 1.2 mM sodium orthovanadate. The reaction was started by adding 10 mM ATP solution (magnesium salt) to the reaction mixture, stopped 10 min later, and the absorbance at 590 nm was measured after a further 30 min incubation (GeniosPlus apparatus; Tecan, Männedorf, Switzerland). The ATPase activity in each sample was determined as the difference in liberated amounts of phosphate measured in the presence and absence of 1.2 mM sodium orthovanadate. Phosphate standards were prepared in each plate and verapamil served as a positive control for ABCB1 stimulation. The results are expressed as vanadate-sensitive ATPase activities.

ABCG2 = system: ABCG2; set-up: method as in PMID 22173067, PMID 24116053; settings: in vitro and in situ; cited from earlier work
ABCB1 transporter [2] = target: T2, ABCB1 transporter (Homo sapiens, UniProt P08183); experiment: DNR accumulation in MDCKII-ABCB1 cells (flow cytometry), normalized to parental MDCKII; assay type: cell-based; settings: 20 µM CDKi, 2 µM DNR
T2 construct: expressed in transfected cells; host or cells: MDCKII (canine kidney) cells transduced with human ABCB1, from Prof; Piet Borst and Dr. Alfred Schinkel (The Netherlands Cancer Institute)
T2 sequence (P08183 whole entry): as above
Protocol: Briefly, MDCKII-ABCB1 and MDCKII parent cells were seeded at 1.5×10^5 cells per well on a 12-well plate 24 h before the experiment. The medium was removed and the cells were washed with prewarmed PBS. The cells were then preincubated in Opti-MEM, with or without CDKi or LY at 37°C in 5% CO2 for 30 min. […] Accumulation was stopped by cooling the samples on ice, removing the medium and washing twice with ice-cold PBS. The cells were then detached from the plates with 10× trypsin-EDTA, resuspended in PBS with 2% FBS and transferred to Eppendorf tubes, which were placed on ice until analysis. […] The median fluorescence (MF) intensity of 10,000 measured cells was used to compare the fluorescence resulting from each of the treatments. […] The MF intensity of untreated cells was subtracted from fluorescence values obtained for all the measured samples.
To quantify the inhibitory effect of each tested compound on the ABCB1 transporter in the MDCKII-ABCB1 cell line, the ratio between the MF intensity with or without inhibitor was calculated and normalized to the effect in the parental MDCKII cell line according to the following equation [30]: [drawing 1]

HepG2 cells = experiment: XTT cytotoxicity, CDKi + DNR combination (Chou-Talalay); assay type: cell-based, human; settings: HepG2, 72 h; for Fa values for synergism of combination with DNR: constant ratio; for DRI at Fa 0.75, drug II (CDKi) / DRI at Fa 0.9, drug II (CDKi): CDKi combined with DNR at constant ratio
Protocol: as §1, §2

HCT-8 cells = experiment: as above; settings: HCT-8, 72 h; for Fa at which combination with DNR shows synergistic cytotoxic effects: constant ratio; for DRI at Fa 0.5, drug II (CDKi) / DRI at Fa 0.75, drug II (CDKi) / DRI at Fa 0.9, drug II (CDKi): CDKi combined with DNR at constant ratio
Protocol: as §1, §2

ABCB1 [3] = target: T1, ABCB1; experiment: HOE (Hoechst 33342) accumulation in MDCKII-ABCB1 cells; assay type: cell-based; set-up: expressed in transfected cells; host or cells: MDCKII (canine kidney) cells transduced with human ABCB1, from Prof; Piet Borst and Dr. Alfred Schinkel (The Netherlands Cancer Institute); settings: human, probe Hoechst 33342 (HOE), 8 µM, CDKi applied at their respective IC50 concentrations, % as strongly as LY, read-out: Inhibition of HOE efflux relative to LY
Protocol: (§4) To investigate the inhibitory activity of CDKi on ABCB1, the intracellular accumulation of HOE, a fluorescent ABCB1 substrate, was examined in both MDCKII-ABCB1 and MDCKII parent cell lines in the presence and absence of the tested compounds. The reduction in fluorescence intensity in ABCB1-transduced cells indicates the efflux activity of the ABCB1 transporter, its inhibition increases HOE accumulation and thus the intracellular fluorescence.
(§5) The assay was conducted as previously described and optimized for application in ABCB1-expressing cells. Briefly, MDCKII-ABCB1 and MDCKII parent cells were seeded at 5×10^4 cells per well on a 96-well culture plate and used for accumulation experiments after 24 h cultivation. The medium was removed and cells were washed twice with prewarmed phosphate buffered saline (PBS) at pH 7.4.

ABCB1 [4] = target: T1, ABCB1; experiment: ABCB1-ATPase activation assay (baseline), Sf9 membranes; assay type: biochemical; set-up: purchased Solvo Biotechnology (Szeged, Hungary); host or cells: Sf9 insect cell membranes; settings: for Effect on baseline vanadate-sensitive ATPase activity of ABCB1: activation assay, 140 nM to 300 µM; for ABCB1 substrate classification: from ATPase activity in Sf9 membranes overexpressing human ABCB1
Protocol: as §3

ABCB1 transporter [5] = target: T2, ABCB1 transporter; experiment: HOE (Hoechst 33342) accumulation in MDCKII-ABCB1 cells; assay type: cell-based; settings: 8 µM HOE, end-point fluorescence at 30 min, 50% of each compound's own maximum inhibitory activity, read-out: IC50, inhibition of ABCB1-mediated efflux of HOE
Protocol: as §4, §5

[6] = MDCKII-ABCB1, 72 h, CDKi combined with DNR at constant ratio

Row | ABCB1 inhibition (DNR efflux) (ABCB1 transporter [2]) | inhibition at 30 min (ABCB1 [3]) [%] | pIC50 (ABCB1 transporter [5]) | SMILES | Combination index (CI) category, combination with DNR (MDCKII-ABCB1 cells; MDCKII-ABCB1, 72 h) | DRI at Fa 0.5, drug II (CDKi) (MDCKII-ABCB1 cells; [6]) | DRI at Fa 0.75, drug II (CDKi) (MDCKII-ABCB1 cells; [6]) | DRI at Fa 0.9, drug II (CDKi) (MDCKII-ABCB1 cells; [6]) | DRI at Fa 0.5, drug II (CDKi) (MDCKII parent cells) | DRI at Fa 0.75, drug II (CDKi) (MDCKII parent cells) | DRI at Fa 0.9, drug II (CDKi) (MDCKII parent cells) | Fa above which combination with DNR is synergistic (MDCKII parent cells) | Effect on verapamil-stimulated vanadate-sensitive ATPase activity of ABCB1 (ABCB1 [1]) | ABCG2 inhibition (ABCG2) | Fa values for synergism of combination with DNR (HepG2 cells) | DRI at Fa 0.75, drug II (CDKi) (HepG2 cells) | DRI at Fa 0.9, drug II (CDKi) (HepG2 cells) | Fa at which combination with DNR shows synergistic cytotoxic effects (HCT-8 cells) | DRI at Fa 0.5, drug II (CDKi) (HCT-8 cells) | DRI at Fa 0.75, drug II (CDKi) (HCT-8 cells) | DRI at Fa 0.9, drug II (CDKi) (HCT-8 cells) | other results
1 | significant (P<0.05) ABCB1 inhibition | 48 | 5.19 | CC[C@H](CO)Nc1nc(NCc2ccccc2O)c2ncn(C(C)C)c2n1 [olomoucine II] | synergistic category of drug combination effects across almost the whole fraction of cells affected (Fa) range | 2.83±0.27 | 2.84±0.19 | 2.86±0.10 | 2.51±0.08 | 2.63±0.05 | 2.75±0.02 | exceeded 0.4 | considerably and dose-dependently reduced | can inhibit ABCG2 in vitro and in situ | 0.75 | 2.08±0.03 | 2.38±0.04 | > 0.1 | 3.04±0.13 | 2.98±0.06 | 2.92±0.05 | Effect on baseline vanadate-sensitive ATPase activity of ABCB1 (ABCB1 [4]): increased the baseline vanadate-sensitive ATPase activity; ABCB1 substrate classification (ABCB1 [4]): ABCB1 substrate and inhibitor
2 | significant (P<0.05) ABCB1 inhibition | 86 | 4.92 | CC(C)[C@H](CO)Nc1nc(Nc2cccc(Cl)c2)c2ncn(C(C)C)c2n1 [purvalanol A] | synergistic category of drug combination effects across almost the whole fraction of cells affected (Fa) range | 4.03±0.08 | 3.73±0.06 | 3.45±0.04 | 2.41±0.03 | 2.40±0.04 | 2.39±0.06 | exceeded 0.4 | considerably and dose-dependently reduced | can inhibit ABCG2 in vitro and in situ | 0.9 |  | 1.68±0.03 | > 0.75 |  | 1.77±0.01 | 1.68±0.05 | ABCB1 substrate classification (ABCB1 [4]): non-substrates of ABCB1

Row | SMILES | ABCB1 inhibition (DNR efflux) (ABCB1 transporter [2]) | inhibition at 30 min (ABCB1 [3]) [%] | pIC50 (ABCB1 transporter [5]) | Combination index (CI) category, combination with DNR (MDCKII-ABCB1 cells; MDCKII-ABCB1, 72 h) | DRI at Fa 0.5, drug II (CDKi) (MDCKII-ABCB1 cells; [6]) | DRI at Fa 0.75, drug II (CDKi) (MDCKII-ABCB1 cells; [6]) | DRI at Fa 0.9, drug II (CDKi) (MDCKII-ABCB1 cells; [6]) | DRI at Fa 0.5, drug II (CDKi) (MDCKII parent cells) | DRI at Fa 0.75, drug II (CDKi) (MDCKII parent cells) | DRI at Fa 0.9, drug II (CDKi) (MDCKII parent cells) | Fa above which combination with DNR is synergistic (MDCKII parent cells) | Effect on verapamil-stimulated vanadate-sensitive ATPase activity of ABCB1 (ABCB1 [1]) | ABCG2 inhibition (ABCG2) | Fa values for synergism of combination with DNR (HepG2 cells) | DRI at Fa 0.75, drug II (CDKi) (HepG2 cells) | DRI at Fa 0.9, drug II (CDKi) (HepG2 cells) | Fa at which combination with DNR shows synergistic cytotoxic effects (HCT-8 cells) | DRI at Fa 0.5, drug II (CDKi) (HCT-8 cells) | DRI at Fa 0.75, drug II (CDKi) (HCT-8 cells) | DRI at Fa 0.9, drug II (CDKi) (HCT-8 cells) | other results
3 | CC[C@H](CO)Nc1nc(NCc2ccccc2)c2ncn(C(C)C)c2n1 [roscovitine] | significant (P<0.05) ABCB1 inhibition | 57 | 4.99 |  |  |  |  |  | 2.29±0.05 | 2.37±0.06 | > 0.45 | considerably and dose-dependently reduced |  | 0.65 | 2.51±0.02 | 2.56±0.02 | > 0.3 | 2.49±0.02 | 2.29±0.03 | 2.11±0.06 | DRI at Fa 0.75, drug II (CDKi) (MDCKII-ABCB1 cells): 3.08±0.02; DRI at Fa 0.9, drug II (CDKi) (MDCKII-ABCB1 cells): 2.96±0.03; Effect on baseline vanadate-sensitive ATPase activity of ABCB1 (ABCB1 [4]): increased the baseline vanadate-sensitive ATPase activity
